The record followed here is ChEMBL document CHEMBL4706558, “Factor XII/XIIa inhibitors: Their discovery, development, and potential indications” (Eur J Med Chem, 2020).

The structures appear in SMILES notation.

Test [1] has as its target T1, Coagulation factor XII (Homo sapiens, UniProt P00748).
T1 sequence (P00748 whole entry): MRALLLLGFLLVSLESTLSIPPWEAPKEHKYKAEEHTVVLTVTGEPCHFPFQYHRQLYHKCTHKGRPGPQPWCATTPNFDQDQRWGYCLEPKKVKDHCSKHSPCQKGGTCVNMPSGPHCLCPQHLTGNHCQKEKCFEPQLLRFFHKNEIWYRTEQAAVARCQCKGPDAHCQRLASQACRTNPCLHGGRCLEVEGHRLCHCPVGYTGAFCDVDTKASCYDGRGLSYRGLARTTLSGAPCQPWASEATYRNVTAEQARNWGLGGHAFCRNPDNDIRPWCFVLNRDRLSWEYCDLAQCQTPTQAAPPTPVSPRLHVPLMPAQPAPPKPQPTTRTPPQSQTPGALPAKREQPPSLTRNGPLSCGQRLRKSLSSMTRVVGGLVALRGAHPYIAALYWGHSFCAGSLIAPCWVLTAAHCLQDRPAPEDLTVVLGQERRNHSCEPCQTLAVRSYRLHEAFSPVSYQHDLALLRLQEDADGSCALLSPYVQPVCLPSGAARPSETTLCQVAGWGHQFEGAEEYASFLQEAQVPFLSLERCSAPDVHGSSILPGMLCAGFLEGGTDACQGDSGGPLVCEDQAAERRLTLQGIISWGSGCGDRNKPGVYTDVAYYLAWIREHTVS
The test can be described thus: Inhibition of human factor 12a.

Test [2] in a line: Inhibition of bovine trypsin using BAEE as substrate by Lineweaver-Burk analysis. Further details: species or system Bos taurus.
The nature of test [3]: Inhibition of bovine trypsin using chromogenic substrate by Lineweaver-Burk analysis. On the set-up: species or system Bos taurus.
Test [4] addresses T1, Coagulation factor XII. Put plainly: Inhibition of human factor 12a using chromogenic substrate by Lineweaver-Burk analysis.
Test [5] deals with T1, Coagulation factor XII. Put plainly: Non-competitive inhibition of factor 12a (unknown origin) using BQGR as substrate.
Test [6] has as its target T2, Trypsin (Homo sapiens, UniProt P07477+P07478+P35030). The test can be described thus: Competitive inhibition of trypsin (unknown origin) using BFSR as substrate. It is filed as protein assay.
Test [7] addresses T2, Trypsin. The test can be described thus: Inhibition of trypsin (unknown origin). It is filed as protein assay.
Test [8] has as its target T1, Coagulation factor XII. The test can be described thus: Inhibition of human factor 12a using H-D-Pro-Phe-Arg-pNa as substrate by spectrophotometric method.
The target of test [9] is T1, Coagulation factor XII. The test can be described thus: Inhibition of factor 12a (unknown origin).

Regarding `N=C(N)Nc1ccc(NC(=O)c2cc3cc(Cl)cc(Br)c3oc2=O)cc1`, it took 102 µM to reach half-maximal inhibition in [1] (IC50).
With `CCCCCCOC(=O)CCCCCN`, the Ki in [2] was 58.7 µM.
For `N=C(N)Nc1ccc(C(=O)Oc2ccc3cc(C(=N)N)ccc3c2)cc1` [NAFAMOSTAT], the Ki in test [3] amounted to 0.016 µM; in test [4], 0.105 µM.
The compound `Cc1ccc2oc(=O)c(C(=O)Nc3ccc(NC(=N)N)cc3)cc2c1` displayed an IC50 in test [1] of 150 µM.
`N=C(N)c1ccc2cc(OC(=O)c3ccc(NC4=NCCN4)cc3)ccc2c1` [SEPIMOSTAT]: the Ki in test [5] came out at 0.021 µM; in test [6] it was 0.097 µM.
Turning to `CCOC(=O)c1ccc(OC(=O)CCCCCNC(=N)N)cc1` [GABEXATE], the figures for the Ki in [3] and in test [4] were 0.072 µM and 2.92 µM, respectively.
In [7], `N=C(N)NCCCCCC(=O)Oc1ccccc1` registered a Ki of 0.8 µM.
As for `N=C(N)NCCC[C@H](NC(=O)[C@@H]1CCCN1C(=O)[C@H](N)Cc1ccccc1)C(=O)CCl`, affinity in test [8] was put at a Ki of 0.23 µM.
In turn, `Cc1ccc2oc(=O)c(C(=O)Nc3ccc(N)cc3)cc2c1` came in with an IC50 in [9] of 14 µM.
With `N=C(N)Nc1ccc(OC(=O)c2cc3cc(CCl)ccc3oc2=O)cc1`, it took 6 µM to reach half-maximal inhibition in test [1] (IC50).
For the compound `CCCCCCOC(=O)CCCCCNC(=N)N`, in test [7], the Ki turned out to be 20 µM.

In general, IC50 refers to the concentration needed to halve the response being measured. Higher therefore signals a need for much substance. A word on the Ki: it is a dissociation constant, usually derived from enzyme kinetics or from competition with a known ligand.
